Measured values taken from ChEMBL document CHEMBL1201862, “PubChem BioAssay data set” (2004).
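Method: 48-hour compound exposure of cells in 96-well plates, five concentrations, linear interpolation of endpoints. Abbreviation: GI50, concentration required for 50% inhibition of growth.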 Activity calls are given as the source filed them. Rule as the data show it: active = GI50 up to about 1.1 µM and inactive = higher.

Key:
Test in all cases: inhibition of tumour cell growth, NCI panel, 48 h
CCRF-CEM = test system: CCRF-CEM
SNB-75 = test system: SNB-75
786-0 = test system: 786-0
SK-MEL-28 = test system: SK-MEL-28
SK-MEL-2 = test system: SK-MEL-2
HCT-116 = test system: HCT-116
TK-10 = test system: TK-10
DMS-114 = test system: DMS-114
OVCAR-3 = test system: OVCAR-3
LOX IMVI = test system: LOX IMVI
HT-29 = test system: HT-29
ACHN = test system: ACHN
A549 = test system: A549
M14 = test system: M14
SK-MEL-5 = test system: SK-MEL-5
HOP-62 = test system: HOP-62
UO-31 = test system: UO-31
K562 = test system: K562
Hs-578T = test system: Hs-578T
CAKI-1 = test system: CAKI-1

Measured: GI50

COC1(OC)CCCCC2c3cccc(OC(C)=O)c3C21OC(C)=O (stereo not drawn)
inactive: CCRF-CEM > 100 µM | SNB-75 > 100 µM | 786-0 > 100 µM | SK-MEL-28 > 100 µM | SK-MEL-2 > 100 µM | HCT-116 57.9 µM | TK-10 > 100 µM | DMS-114 > 100 µM | OVCAR-3 94 µM | LOX IMVI > 100 µM | HT-29 > 100 µM | ACHN 78.9 µM | A549 > 100 µM | M14 > 100 µM | SK-MEL-5 > 100 µM | HOP-62 > 100 µM | UO-31 51.6 µM | K562 55.3 µM

NC(=S)N/N=C1\CCCC\C1=C/c1ccccc1
inactive: CCRF-CEM 30.5 µM | SNB-75 30.5 µM | 786-0 63.8 µM | SK-MEL-28 > 100 µM | SK-MEL-2 73.3 µM | HCT-116 58.2 µM | TK-10 39.9 µM | DMS-114 37.3 µM | OVCAR-3 39.1 µM | LOX IMVI > 100 µM | HT-29 20 µM | ACHN > 100 µM | A549 > 100 µM | M14 91 µM | HOP-62 > 100 µM | UO-31 32.5 µM | K562 2.71 µM

CC1(C)OCC(C2OC(N3O[C@H](CI)C[C@@H]3c3ccccc3)C3OC(C)(C)OC23)O1 (stereo partly drawn)
inactive: CCRF-CEM > 100 µM | SNB-75 > 100 µM | 786-0 > 100 µM | SK-MEL-28 > 100 µM | SK-MEL-2 > 100 µM | HCT-116 61 µM | TK-10 > 100 µM | OVCAR-3 > 100 µM | LOX IMVI > 100 µM | Hs-578T > 100 µM | HT-29 61.9 µM | ACHN > 100 µM | A549 > 100 µM | CAKI-1 > 100 µM | M14 82 µM | SK-MEL-5 48.8 µM | HOP-62 > 100 µM | UO-31 > 100 µM | K562 > 100 µM

COC(=O)C(Cc1nc2ccccc2nc1O)C(NO)C(=O)Nc1c(Cl)cc([N+](=O)[O-])cc1Cl (stereo not drawn)
inactive: CCRF-CEM 23.3 µM | 786-0 40.6 µM | SK-MEL-28 30.9 µM | SK-MEL-2 32.1 µM | HCT-116 22.3 µM | DMS-114 21.2 µM | OVCAR-3 40.6 µM | HT-29 35.2 µM | ACHN 35.6 µM | A549 38.5 µM | CAKI-1 27.6 µM | M14 50.1 µM | SK-MEL-5 18 µM | HOP-62 26 µM | UO-31 36.1 µM | K562 40.8 µM

CCOC(=O)C1N(S(=O)(=O)c2ccc(C)cc2)CCC12c1ccccc1N(C(C)=O)C2C(/C=C/C(=O)OC)=C/C(=O)OC (stereo not drawn)
inactive: CCRF-CEM > 100 µM | SNB-75 > 100 µM | 786-0 > 100 µM | SK-MEL-28 > 100 µM | HCT-116 > 100 µM | TK-10 > 100 µM | DMS-114 > 100 µM | OVCAR-3 > 100 µM | LOX IMVI > 100 µM | HT-29 > 100 µM | ACHN > 100 µM | A549 84.1 µM | CAKI-1 > 100 µM | M14 > 100 µM | SK-MEL-5 > 100 µM | HOP-62 > 100 µM | UO-31 > 100 µM | K562 85.3 µM

O=S(=O)(O)SC/C=C\CSS(=O)(=O)O
inactive: SNB-75 60.4 µM | 786-0 > 100 µM | SK-MEL-28 > 100 µM | HCT-116 > 100 µM | TK-10 > 100 µM | DMS-114 42.7 µM | OVCAR-3 > 100 µM | LOX IMVI 24.8 µM | HT-29 42.3 µM | ACHN > 100 µM | A549 44.4 µM | CAKI-1 > 100 µM | M14 > 100 µM | SK-MEL-5 > 100 µM | HOP-62 > 100 µM | UO-31 > 100 µM | K562 > 100 µM

CC1CC[C@]2(C(=O)O)CCC3(COC(=O)/C=C\c4ccc(O)cc4)C(=CCC4[C@@]5(C)CC[C@H](O)C(C)(C)C5CC[C@]43C)[C@@H]2[C@H]1C (stereo partly drawn)
inactive: CCRF-CEM 20.4 µM | SNB-75 27.7 µM | 786-0 21.3 µM | SK-MEL-28 20 µM | SK-MEL-2 20.8 µM | HCT-116 17.5 µM | TK-10 21.7 µM | DMS-114 25.7 µM | OVCAR-3 18.2 µM | LOX IMVI 14.1 µM | HT-29 19.7 µM | ACHN 10.4 µM | A549 11.3 µM | CAKI-1 11.4 µM | M14 17.6 µM | SK-MEL-5 18.2 µM | UO-31 17.7 µM | K562 13 µM
